Source: patent US9926281B2 (priority 2014, dated 2018)

Assays:
human ADAMTS-5 = human ADAMTS-5 (Homo sapiens (Human), UniProt Q9UNA0); settings: read-out: hADAMTS-5 potency IC50
Protocol: Finally, the fluorescence is read on the Envision (Perkin Elmer) after an incubation of 90 min at 37° C.

human TACE = human TACE (Homo sapiens (Human), UniProt P78536); settings: read-out: TACE potency IC50
human MMP13 = human MMP13 (Homo sapiens (Human), UniProt P45452); settings: read-out: hMMP-13 potency IC50
Protocol: Human MMP13 is preactivated by incubated the enzyme in the same buffer complemented with 1 mM freshly prepared p-Aminophenylmercuric acetate (AMPA) for 1 hour at 37° C.

Sequence of human TACE (P78536 whole entry, looked up, change not shown): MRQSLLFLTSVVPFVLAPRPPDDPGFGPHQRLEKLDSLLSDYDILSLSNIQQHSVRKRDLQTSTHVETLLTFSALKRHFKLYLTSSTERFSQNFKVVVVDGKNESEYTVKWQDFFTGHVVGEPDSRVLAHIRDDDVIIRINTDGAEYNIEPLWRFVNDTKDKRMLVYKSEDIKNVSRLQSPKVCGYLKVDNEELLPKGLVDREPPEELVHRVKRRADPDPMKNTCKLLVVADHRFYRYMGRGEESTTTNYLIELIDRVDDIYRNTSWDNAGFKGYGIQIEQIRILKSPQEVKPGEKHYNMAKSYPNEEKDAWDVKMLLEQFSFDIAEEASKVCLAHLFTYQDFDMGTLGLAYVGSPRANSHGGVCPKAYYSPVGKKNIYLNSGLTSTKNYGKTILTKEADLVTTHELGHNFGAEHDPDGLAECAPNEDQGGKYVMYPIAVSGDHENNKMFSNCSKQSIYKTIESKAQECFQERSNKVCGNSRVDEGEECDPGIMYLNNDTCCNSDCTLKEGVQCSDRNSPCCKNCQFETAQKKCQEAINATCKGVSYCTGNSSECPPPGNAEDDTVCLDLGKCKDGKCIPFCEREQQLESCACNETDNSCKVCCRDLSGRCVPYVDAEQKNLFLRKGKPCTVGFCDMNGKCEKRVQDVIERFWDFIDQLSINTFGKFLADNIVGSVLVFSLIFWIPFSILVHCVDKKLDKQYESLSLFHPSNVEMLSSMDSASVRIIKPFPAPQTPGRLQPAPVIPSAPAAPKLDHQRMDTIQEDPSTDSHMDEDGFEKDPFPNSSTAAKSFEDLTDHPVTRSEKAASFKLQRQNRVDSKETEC
Sequence of human ADAMTS-5 (Q9UNA0 262-930): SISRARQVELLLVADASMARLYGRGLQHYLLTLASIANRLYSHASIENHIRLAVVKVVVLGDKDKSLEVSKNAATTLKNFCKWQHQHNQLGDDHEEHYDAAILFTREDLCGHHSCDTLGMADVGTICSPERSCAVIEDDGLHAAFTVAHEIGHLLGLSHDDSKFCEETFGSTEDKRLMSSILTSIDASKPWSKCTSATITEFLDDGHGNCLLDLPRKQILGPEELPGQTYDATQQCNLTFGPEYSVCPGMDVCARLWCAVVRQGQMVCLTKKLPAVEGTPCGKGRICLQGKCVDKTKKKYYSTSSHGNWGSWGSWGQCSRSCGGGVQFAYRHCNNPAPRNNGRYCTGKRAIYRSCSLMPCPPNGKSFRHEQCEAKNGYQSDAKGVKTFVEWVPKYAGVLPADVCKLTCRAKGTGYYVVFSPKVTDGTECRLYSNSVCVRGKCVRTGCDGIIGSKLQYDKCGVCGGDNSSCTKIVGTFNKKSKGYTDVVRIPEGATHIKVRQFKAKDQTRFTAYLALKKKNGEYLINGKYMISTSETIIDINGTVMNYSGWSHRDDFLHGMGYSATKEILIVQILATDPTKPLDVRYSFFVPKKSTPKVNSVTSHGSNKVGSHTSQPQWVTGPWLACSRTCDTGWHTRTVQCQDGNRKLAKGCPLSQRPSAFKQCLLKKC

SMILES	IC50 (human ADAMTS-5)	IC50 (human TACE)	IC50 (human MMP13)
COCC1(CC(C)C(=O)N2CCN(c3cc(Cl)cc(Cl)c3)CC2)NC(=O)NC1=O (stereo not drawn) [compound 427, 5-(3-(4-(3,5-dichlorophenyl)piperazin-1-yl)-2-methyl-3-oxopropyl)-5-(methoxymethyl)imidazolidine-2,4-dione]	20 nM	337 nM	> 4000 nM
CCC(CC1(C)NC(=O)NC1=O)C(=O)N1CCN(c2cc(Cl)cc(Cl)c2)CC1 (stereo not drawn) [compound 435, 5-(2-(4-(3,5-dichlorophenyl)piperazine-1-carbonyl)butyl)-5-methylimidazolidine-2,4-dione]	15 nM	225 nM	1220 nM
CN(C)Cc1ccc(C2(CCC(=O)N3CCN(c4cccc(Cl)c4)CC3)NC(=O)NC2=O)cc1 (stereo not drawn) [compound 83, 5-[3-[4-(3-chlorophenyl)piperazin-1-yl]-3-oxo-propyl]-5-[4-(dimethylaminomethyl)phenyl]imidazolidine-2,4-dione]		2490 nM	> 4000 nM
O=C1NC(=O)C(CCC(=O)N2CCN(c3cccc(Cl)c3)CC2)(CN2CCOCC2)N1 (stereo not drawn) [compound 155, 5-[3-[4-(3-chlorophenyl)piperazin-1-yl]-3-oxo-propyl]-5-(morpholinomethyl)imidazolidine-2,4-dione]	1250 nM	> 20000 nM	> 20000 nM
O=C1NC(=O)C(CCC(=O)N2CCN(c3cc(Cl)cc(Cl)c3)CC2)(c2ccccn2)N1 (stereo not drawn) [compound 407, 5-(3-(4-(3,5-dichlorophenyl)piperazin-1-yl)-3-oxopropyl)-5-(pyridin-2-yl)imidazolidine-2,4-dione]		479 nM	> 20000 nM
COCC1(CC(C)C(=O)N2CCN(c3cc(Cl)cc(Cl)c3)CC2)NC(=O)NC1=O (stereo not drawn) [compound 222, 5-[3-[4-(3,5-dichlorophenyl)piperazin-1-yl]-2-methyl-3-oxo-propyl]-5-(methoxymethyl)imidazolidine-2,4-dione]	20 nM	337 nM	> 4000 nM
COCC1(CC(C)C(=O)N2CCN(c3cccc(Cl)c3C)CC2)NC(=O)NC1=O (stereo not drawn) [compound 433, 5-(3-(4-(3-chloro-2-methylphenyl)piperazin-1-yl)-2-methyl-3-oxopropyl)-5-(methoxymethyl)imidazolidine-2,4-dione]	21 nM	1250 nM	> 20000 nM
CCC1(CCC(=O)N2CCN(c3cccc(Cl)c3)CC2)NC(=O)NC1=O (stereo not drawn) [compound 122, 5-[3-[4-(3-chlorophenyl)piperazin-1-yl]-3-oxo-propyl]-5-ethyl-imidazolidine-2,4-dione]		> 4000 nM	> 20000 nM
CC1(CC(CO)C(=O)N2CCN(c3cc(Cl)cc(Cl)c3)CC2)NC(=O)NC1=O (stereo not drawn) [compound 425, 5-(3-(4-(3,5-dichlorophenyl)piperazin-1-yl)-2-(hydroxymethyl)-3-oxopropyl)-5-methylimidazolidine-2,4-dione]	18 nM	245 nM	> 4000 nM
CC(CC1(C)NC(=O)NC1=O)C(=O)N1CCN(c2cc(Cl)cc(Cl)c2)CC1 (stereo not drawn) [compound 410, 5-(3-(4-(3,5-dichlorophenyl)piperazin-1-yl)-2-methyl-3-oxopropyl)-5-methylimidazolidine-2,4-dione]	22 nM	170 nM	> 4000 nM
CC(CC1(COCc2ccccc2)NC(=O)NC1=O)C(=O)N1CCN(c2cc(Cl)cc(Cl)c2)CC1 (stereo not drawn) [compound 415, 5-(benzyloxymethyl)-5-(3-(4-(3,5-dichlorophenyl)piperazin-1-yl)-2-methyl-3-oxopropyl)imidazolidine-2,4-dione]	28 nM	396 nM	1300 nM
C[C@H]1CN(C(=O)CCC2(C3CC3)NC(=O)NC2=O)CCN1c1ccc(Cl)c(Cl)c1 (stereo partly drawn) [compound 408, 5-cyclopropyl-5-(3-((S)-4-(3,4-dichlorophenyl)-3-methylpiperazin-1-yl)-3-oxopropyl)imidazolidine-2,4-dione]	19 nM	> 4000 nM	> 4000 nM
CC(CC1(C2CC2)NC(=O)NC1=O)C(=O)N1CCN(c2ccc(Cl)cc2)[C@@H](C)C1 (stereo partly drawn) [compound 412, 5-(3-((S)-4-(4-chlorophenyl)-3-methylpiperazin-1-yl)-2-methyl-3-oxopropyl)-5-cyclopropylimidazolidine-2,4-dione]	13 nM	> 20000 nM	433 nM
C[C@H]1CN(C(=O)CC[C@@]2(C)NC(=O)NC2=O)CCN1c1ccc(Cl)c(Cl)c1 [compound 414, (R)-5-(3-((S)-4-(3,4-dichlorophenyl)-3-methylpiperazin-1-yl)-3-oxopropyl)-5-methylimidazolidine-2,4-dione]	40 nM	> 4000 nM	> 4000 nM
NCC1(CCC(=O)N2CCN(c3cccc(Cl)c3)CC2)NC(=O)NC1=O (stereo not drawn) [compound 171, 5-(aminomethyl)-5-[3-[4-(3-chlorophenyl)piperazin-1-yl]-3-oxo-propyl]imidazolidine-2,4-dione]	305 nM	> 20000 nM	> 4000 nM
CC(CC1(C2CC2)NC(=O)NC1=O)C(=O)N1CCN(c2ccc(F)c(Cl)c2)[C@@H](C)C1 (stereo partly drawn) [compound 411, 5-(3-((S)-4-(3-chloro-4-fluorophenyl)-3-methylpiperazin-1-yl)-2-methyl-3-oxopropyl)-5-cyclopropylimidazolidine-2,4-dione]	11 nM	> 4000 nM	865 nM
CC1CN(C(=O)CCC2(c3cccnc3)NC(=O)NC2=O)CCN1c1cc(Cl)cc(Cl)c1 (stereo not drawn) [compound 127, 5-[3-[4-(3,5-dichlorophenyl)-3-methyl-piperazin-1-yl]-3-oxo-propyl]-5-(3-pyridyl)imidazolidine-2,4-dione]		> 4000 nM	> 20000 nM
CN(C)CC1(CCC(=O)N2CCN(c3cccc(Cl)c3)CC2)NC(=O)NC1=O (stereo not drawn) [compound 118, 5-[3-[4-(3-chlorophenyl)piperazin-1-yl]-3-oxo-propyl]-5-(dimethylaminomethyl)imidazolidine-2,4-dione]		> 4000 nM	> 20000 nM
Cc1ccc(Cl)cc1N1CCN(C(=O)CCC2(CN(C)C)NC(=O)NC2=O)CC1 (stereo not drawn) [compound 120, 5-[3-[4-(5-chloro-2-methyl-phenyl)piperazin-1-yl]-3-oxo-propyl]-5-(dimethylaminomethyl)imidazolidine-2,4-dione]		> 4000 nM	> 20000 nM
CC1(CCC(=O)N2CCN(c3cc(F)cc(F)c3)CC2)NC(=O)NC1=O (stereo not drawn) [compound 140, 5-[3-[4-(3,5-difluorophenyl)piperazin-1-yl]-3-oxo-propyl]-5-methyl-imidazolidine-2,4-dione]		> 20000 nM	> 4000 nM
COCC1(CC(C)C(=O)N2CCN(c3cc(Cl)cc(Cl)c3C)[C@@H](C)C2)NC(=O)NC1=O (stereo partly drawn) [compound 430, 5-(3-((S)-4-(3,5-dichloro-2-methylphenyl)-3-methylpiperazin-1-yl)-2-methyl-3-oxopropyl)-5-(methoxymethyl)imidazolidine-2,4-dione]			> 20000 nM
Cc1nc(C2(CCC(=O)N3CCN(c4cc(F)cc(F)c4)[C@@H](C)C3)NC(=O)NC2=O)co1 (stereo partly drawn) [compound 395, 5-[3-[(3S)-4-(3,5-difluorophenyl)-3-methyl-piperazin-1-yl]-3-oxo-propyl]-5-(2-methyloxazol-4-yl)imidazolidine-2,4-dione]	39 nM	> 20000 nM	
C[C@H]1CN(C(=O)CCC2(C3CC3)NC(=O)NC2=O)CCN1c1cccnn1 (stereo partly drawn) [Cpd 302, 5-cyclopropyl-5-[3-(3S)-3-methyl-4-pyridazin-3-yl-piperazin-1-yl-3-oxo-propyl]imidazolidine-2,4-dione]	776 nM	> 20000 nM	
Cc1nc(C2(CCC(=O)N3CCN(c4cc(F)cc(F)c4)[C@@H](C)C3)NC(=O)NC2=O)c[nH]1 (stereo partly drawn) [compound 354, 5-[3-[(3S)-4-(3,5-difluorophenyl)-3-methyl-piperazin-1-yl]-3-oxo-propyl]-5-(2-methyl-1H-imidazol-4-yl)imidazolidine-2,4-dione]	> 20000 nM	> 20000 nM	
C[C@H]1CN(C(=O)CCC2(c3ccccn3)NC(=O)NC2=O)CCN1c1ccc(Cl)c(Cl)c1 (stereo partly drawn) [compound 458, 5-[3-[(3S)-4-(3,4-dichlorophenyl)-3-methyl-piperazin-1-yl]-3-oxo-propyl]-5-(2-pyridyl)imidazolidine-2,4-dione]	21 nM	2380 nM	
C[C@H]1CN(C(=O)CCC2(C3CC3)NC(=O)NC2=O)CCN1c1cnc2ccn(C)c2c1 (stereo partly drawn) [compound 337, 5-cyclopropyl-5-[3-[(3S)-3-methyl-4-(1-methylpyrrolo[3,2-b]pyridin-6-yl)piperazin-1-yl]-3-oxo-propyl]imidazolidine-2,4-dione]	764 nM	> 20000 nM	
Cc1cc(N2CCN(C(=O)CCC3(C4CC4)NC(=O)NC3=O)C[C@@H]2C)ccc1F (stereo partly drawn) [compound 298, 5-cyclopropyl-5-[3-[(3S)-4-(4-fluoro-3-methyl-phenyl)-3-methyl-piperazin-1-yl]-3-oxo-propyl]imidazolidine-2,4-dione]	192 nM	> 20000 nM	
CNc1cc(N2CCN(C(=O)CC[C@@]3(C)NC(=O)NC3=O)C[C@@H]2C)ccc1Cl [compound 392, (5R)-5-[3-[(3S)-4-[4-chloro-3-(methylamino)phenyl]-3-methyl-piperazin-1-yl]-3-oxo-propyl]-5-methyl-imidazolidine-2,4-dione]	567 nM	> 20000 nM	
Cc1ccc(C2(CCC(=O)N3CCN(c4cc(F)cc(Cl)c4)[C@@H](C)C3)NC(=O)NC2=O)cn1 (stereo partly drawn) [compound 383, 5-[3-[(3S)-4-(3-chloro-5-fluoro-phenyl)-3-methyl-piperazin-1-yl]-3-oxo-propyl]-5-(6-methyl-3-pyridyl)imidazolidine-2,4-dione]	43 nM	> 4000 nM	
Cc1noc(N2CCN(C(=O)CCC3(C4CC4)NC(=O)NC3=O)C[C@@H]2C)n1 (stereo partly drawn) [compound 352, 5-cyclopropyl-5-[3-[(3S)-3-methyl-4-(3-methyl-1,2,4-oxadiazol-5-yl)piperazin-1-yl]-3-oxo-propyl]imidazolidine-2,4-dione]	> 20000 nM	> 20000 nM	
